Literature values as cited in US20240041944A1, “OPTIMIZED INDIVIDUALIZED PREBIOTIC COMPOSITIONS” (ISOThrive LLC, priority 2016, published 2024).
Entries after “also recorded” stand apart in the source; their conditions may differ. Ends that are not written are not given here.

Tests used:
Caenorhabditis elegans = conditions: incubation with rifamycin
[1] = can be autoclaved at 115° C.
[2] = test system: Bacillus, Clostridium, Staphylococcus, Streptococcus, and Listeria spp.
Salmonella spp. = conditions: co-administered with EDTA
head/neck tumors = conditions: head and neck, mice

Molecule | Cancer Cell Type affected (cancer cell lines) | further results
CO[C@H]1/C=C/O[C@@]2(C)Oc3c(C)c(O)c4c(O)c(cc(O)c4c3C2=O)NC(=O)/C(C)=C\C=C\[C@H](C)[C@H](O)[C@@H](C)[C@@H](O)[C@@H](C)[C@H](OC(C)=O)[C@@H]1C [rifamycin] | – | increase of lifespan (Caenorhabditis elegans): up to 60%; cytotoxicity (ascites tumors): cytotoxic
Nisin: lantibiotic bacteriocin produced by Lactococcus lactis, 34-residue peptide (SEQ ID NO:2) (ITSISLCTPGCKTGALMGCNMKTATCNCSIHVSK; cysteine pairing not given here; also: lanthionine modifications; listed as Lactococcus lactis) | MCF7 (breast cancer),; also recorded: HepG2 (liver cancer) | thermal stability [1]: thermally stable; antimicrobial activity [2]: active; activity against gram negative organisms (Salmonella spp.): effective; effect on tumorigenesis / tumors (head/neck tumors): reduce tumorigenesis
Bovicin HC5 | MCF7 (breast cancer),; also recorded: HepG2 (liver cancer) | –
Colicin E1: class III bacteriocin produced by E. coli (protein, UniProt P02978 1-522, looked up) Colicin-E1: METAVAYYKDGVPYDDKGQVIITLLNGTPDGSGSGGGGGKGGSKSESSAAIHATAKWSTAQLKKTQAEQAARAKAAAEAQAKAKANRDALTQRLKDIVNEALRHNASRTPSATELAHANNAAMQAEDERLRLAKAEEKARKEAEAAEKAFQEAEQRRKEIEREKAETERQLKLAEAEEKRLAALSEEAKAVEIAQKKLSAAQSEVVKMDGEIKTLNSRLSSSIHARDAEMKTLAGKRNELAQASAKYKELDELVKKLSPRANDPLQNRPFFEATRRRVGAGKIREEKQKQVTASETRINRINADITQIQKAISQVSNNRNAGIARVHEAEENLKKAQNNLLNSQIKDAVDATVSFYQTLTEKYGEKYSKMAQELADKSKGKKIGNVNEALAAFEKYKDVLNKKFSKADRDAIFNALASVKYDDWAKHLDQFAKYLKITGHVSFGYDVVSDILKIKDTGDWKPLFLTLEKKAADAGVSYVVALLFSLLAGTTLGIWGIAIVTGILCSYIDKNKLNTINEVLGI | MCF7 (breast cancer),; also recorded: HS913T (fibrosarcoma) | –
Microcin E492: class IIa bacteriocin produced by K. pneumoniae (protein, UniProt Q9Z4N4 16-99, looked up) Microcin E492: GETDPNTQLLNDLGNNMAWGAALGAPGGLGSAALGAAGGALQTVGQGLIDHGPVNVPIPVLIGPSWNGSGSGYNSATSSSGSGS | HeLa (cervical cancer),; also recorded: Jurkat (leukemia); also recorded: RJ2.25 | –
Pyocin S2: class III bacteriocin produced by P. aeruginosa 42A (protein, UniProt Q06584 2-689, looked up) Pyocin-S2: AVNDYEPGSMVITHVQGGGRDIIQYIPARSSYGTPPFVPPGPSPYVGTGMQEYRKLRSTLDKSHSELKKNLKNETLKEVDELKSEAGLPGKAVSANDIRDEKSIVDALMDAKAKSLKAIEDRPANLYTASDFPQKSESMYQSQLLASRKFYGEFLDRHMSELAKAYSADIYKAQIAILKQTSQELENKARSLEAEAQRAAAEVEADYKARKANVEKKVQSELDQAGNALPQLTNPTPEQWLERATQLVTQAIANKKKLQTANNALIAKAPNALEKQKATYNADLLVDEIASLQARLDKLNAETARRKEIARQAAIRAANTYAMPANGSVVATAAGRGLIQVAQGAASLAQAISDAIAVLGRVLASAPSVMAVGFASLTYSSRTAEQWQDQTPDSVRYALGMDAAKLGLPPSVNLNAVAKASGTVDLPMRLTNEARGNTTTLSVVSTDGVSVPKAVPVRMAAYNATTGLYEVTVPSTTAEAPPLILTWTPASPPGNQNPSSTTPVVPKPVPVYEGATLTPVKATPETYPGVITLPEDLIIGFPADSGIKPIYVMFRDPRDVPGAATGKGQPVSGNWLGAASQGEGAPIPSQIADKLRGKTFKNWRDFREQFWIAVANDPELSKQFNPGSLAVMRDGGAPYVRESEQAGGRIKIEIHHKVRIADGGGVYNMGNLVAVTPKRHIEIHKGGK | HepG2 (liver cancer) and Im9 | –
Colicin E3: class III bacteriocin produced by E. coli (protein, UniProt P00646 1-551, looked up) Colicin E3: MSGGDGRGHNTGAHSTSGNINGGPTGLGVGGGASDGSGWSSENNPWGGGSGSGIHWGGGSGHGNGGGNGNSGGGSGTGGNLSAVAAPVAFGFPALSTPGAGGLAVSISAGALSAAIADIMAALKGPFKFGLWGVALYGVLPSQIAKDDPNMMSKIVTSLPADDITESPVSSLPLDKATVNVNVRVVDDVKDERQNISVVSGVPMSVPVVDAKPTERPGVFTASIPGAPVLNISVNNSTPAVQTLSPGVTNNTDKDVRPAGFTQGGNTRDAVIRFPKDSGHNAVYVSVSDVLSPDQVKQRQDEENRRQQEWDATHPVEAAERNYERARAELNQANEDVARNQERQAKAVQVYNSRKSELDAANKTLADAIAEIKQFNRFAHDPMAGGHRMWQMAGLKAQRAQTDVNNKQAAFDAAAKEKSDADAALSSAMESRKKKEDKKRSAENNLNDEKNKPRKGFKDYGHDYHPAPKTENIKGLGDLKPGIPKTPKQNGGGKRKRWTGDKGRKIYEWDSQHGELEGYRASDGQHLGSFDPKTGNQLKGPDPKRNIKKYL | P388 (lymphoma) and HeLa | –
